Assay results from patent publication US20240024273A1, “TOPICAL ADMINISTRATION OF 2-(DIETHYLAMINO)ETHYL 2-(4-ISOBUTYLPHENYL)PROPRIONATE FOR TREATMENT OF DISEASES” (TECHFIELDS PHARMA CO., LTD., priority 2020, published 2024).
Values joined by “and” are separate entries in the source; they are usually repeats but may differ in a detail not shown here. Identical values can stand only once.

How the values were obtained:
[1] = Acute maximum tolerated dose study, dermal; parameters: species or system Beagle dogs; conditions: beagle, dog, in vivo, topical or ocular; dermal application
[2] = system: healthy male and female volunteers; assay: Phase 1 clinical study: safety (adverse events, laboratory, vital signs, ECG); format: in vivo, human; conditions: for Subjects with at least one TEAE: N = 8
Excerpt: Safety assessments included monitoring of adverse events (AEs), vital signs (blood pressure, pulse rate, respiratory rate and oral temperature), clinical laboratory findings, resting 12-lead electrocardiogram (ECG) results, skin irritation assessments and physical examination findings.
Safety endpoints consist of all AEs, clinical laboratory test results, ECG, physical examination and vital sign assessments and skin irritation assessments.
Safety summaries are provided for all subjects in the safety population. Data from subjects in each cohort who received placebo treatment were pooled. AE data, clinical laboratory test results, ECG, skin irritation and vital signs data are presented descriptively using summary tables and listings. Change from baseline in vital signs, ECG and clinical laboratory results are presented descriptively using summary tables and listings. Physical examination findings are listed by subject.
Samples for clinical laboratory safety tests (chemistry, hematology, urinalysis) were obtained at the screening visit, Day −1, Day 4, Day 13 and prior to discharge from the study on Day 17 or at early termination. Any clinical laboratory findings considered to be clinically significant were recorded as AEs.
Systolic and diastolic blood pressure (mmHg) and pulse rate (beats per minute), respiratory rate (breaths per minute) and oral temperature (° C.) were measured after at least 5 minutes at rest in the seated position at the screening visit, at admission on Day −1, Day 5 and Day 13, and prior to and 1 hour following each dose administration.
A physical examination was performed at the screening visit and on Day 13, or at early termination, and included assessment of the following body systems: general appearance, dermatological, head, eyes, ears, nose and throat, neck, lymph nodes, lungs, heart, abdomen, neurological and musculoskeletal.
A resting 12-lead ECG was recorded after at least 5 minutes of rest at the screening visit and on Day 13, or at early termination. The ECG parameters recorded include ventricular rate (bpm), PR interval (msec), QRS duration (msec), QT interval (msec), and QTc interval (msec). QTc interval was calculated at the clinic using a formula internal to the ECG equipment (Mortara).

[3] = pig, in vivo, topical or ocular, 9 mg/kg
[4] = N = 8 each, dose by column: c1 17.5, c2 35, c3 70, c4 140, c5 280 mg topical, c6 70 mg spray

CCN(CC)CCOC(=O)C(C)c1ccc(CC(C)C)cc1 (stereo not drawn) [2-(diethylamino)ethyl 2-(4-isobutylphenyl)propionate]
MTD [1]: ≥ 50 mg/kg | Subjects with at least one TEAE ([2]; 17.5 mg topical): 1 (12.5%) n (%) and 1 (12.5) n (%) | Headache, subjects ([2]; 35 mg topical): 2 (25.0%) | Subjects with at least one TEAE ([2]; 35 mg topical): 3 (37.5%) n (%) and 3 (37.5) n (%) | Subjects with at least one TEAE ([2]; 70 mg spray): 2 (25.0%) n (%) and 2 (25.0) n (%) | Subjects with at least one TEAE ([2]; 70 mg topical): 1 (12.5%) n (%) and 1 (12.5) n (%) | Headache, subjects ([2]; 140 mg topical): 1 (12.5%) | Subjects with at least one TEAE ([2]; 140 mg topical): 1 (12.5%) n (%) and 1 (12.5) n (%) | Subjects with at least one TEAE ([2]; 280 mg topical): 1 (12.5%) n (%) and 1 (12.5) n (%) | safety and tolerability ([2]; 17.5-280 mg topical and 70 mg spray, single and multiple doses): safe and well-tolerated | Subjects who discontinued due to an AE [2, 4]: 0 | Subjects with SAEs [2, 4]: 0 | TEAE: Dizziness [2, 4]: 0 n (%) | TEAE: Vomiting [2, 4]: 0 n (%) | intensity of AEs ([2]; all dose groups): mild or moderate in intensity | aspartate aminotransferase (ast) increased, subjects ([2]; each of 70 mg topical and 70 mg spray): 1 (12.5%) | alanine aminotransferase (ALT) increased, subjects ([2]; each of 70 mg, 280 mg topical and 70 mg spray): 1 (12.5%) | ECG parameters ([2]; human, in vivo): no clinically significant ECG parameter values | deaths ([2]; human, in vivo): No subjects died | laboratory findings vs dose ([2]; human, in vivo): no apparent trends or dose relationship | vital signs ([2]; human, in vivo): no clinically significant vital sign values | cartilage AUClast [3]: 23910 ng·h/mL | muscle AUClast [3]: 35890 ng·h/mL | plasma AUClast [3]: 1516 ng·h/mL
